The values below come from patent US9770421B2, “Uses for idebenone and related benzoquinones in metabolic disorders and other PPAR α/γ related diseases and conditions” (INDANIO BIOSCIENCE INC., priority 2013, dated 2017).

Entries after “also recorded” stand apart in the source; their conditions may differ.

One assay addresses T1, PPARγ LBD (Homo sapiens, UniProt P37231).
T1 construct: His-tagged PPARα, δ and γ LBDs were expressed in bacteria, Ni-NTA purified; His; made in house; host or cells: bacteria (E. coli)
T1 sequence (P37231 238-503 limits assumed): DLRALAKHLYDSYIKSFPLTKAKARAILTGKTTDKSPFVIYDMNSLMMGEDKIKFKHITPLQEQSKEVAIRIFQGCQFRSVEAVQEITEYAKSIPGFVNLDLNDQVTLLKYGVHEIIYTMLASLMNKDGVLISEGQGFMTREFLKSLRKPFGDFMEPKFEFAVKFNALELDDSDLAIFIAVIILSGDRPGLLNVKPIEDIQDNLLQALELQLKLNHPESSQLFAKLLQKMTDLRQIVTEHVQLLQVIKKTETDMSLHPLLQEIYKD
Put plainly: In vitro co-purification with His-tagged PPARγ LBD, MS. The following applies: incubated with 10 μM idebenone. In kind it is binding. As to the method:
To see if idebenone can bind to directly to other PPAR LBDs, His-tagged PPARα, δ and γ LBDs were expressed in bacteria, Ni-NTA purified and incubated with 10 μM idebenone. After several washes in a 10 kDa cut off Amicon centrifuge filter (Millipore), lipids were extracted and analyzed by MS.

Assay [1] addresses T2, affinity-tagged PPARγ expressed in zebrafish (Homo sapiens, UniProt P37231).
T2 construct: pLT PPARα (aa 178-468) and pLT PPAR γ (aa 188-477) lines; expressed in transfected cells; host or cells: transgenic zebrafish embryos (heat-induced ligand-trap line)
T2 sequence (P37231 188-477 isoform P37231-2): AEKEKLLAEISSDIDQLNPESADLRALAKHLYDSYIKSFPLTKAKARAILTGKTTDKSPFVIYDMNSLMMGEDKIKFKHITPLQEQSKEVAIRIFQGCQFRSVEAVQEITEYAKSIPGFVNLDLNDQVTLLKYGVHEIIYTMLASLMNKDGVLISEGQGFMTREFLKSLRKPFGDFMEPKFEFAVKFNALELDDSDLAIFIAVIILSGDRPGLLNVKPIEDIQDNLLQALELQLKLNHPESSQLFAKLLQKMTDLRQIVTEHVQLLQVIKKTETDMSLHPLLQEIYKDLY
The assay is described as follows: Affinity purification of PPARγ from LT fish and LC-MRM of bound drugs. Format: binding. The following applies: 1 μM rosiglitazone or 4 μM idebenone; purification in 1M NaCl.
Method: Following purification, bound small molecules were extracted using 2:1 chloroform/methanol and subjected to LC-MRM (liquid chromatogaphy—multiple reaction monitoring) mass spectrometry to identify co-purifying small molecules.
1 dpf zebrafish embryos were heat induced for 1 hr in pre-heated embryo water 37° C. (+/− drugs). […] Purification steps were performed at 4° C. Frozen embryos were homogenized in lysis buffer (50 mM Hepes ph7.5, 1M NaCl, 0.1% Triton X-100, 1 mM DTT, 1 mM EDTA, 1 ppm BHT, Complete protease inhibitor cocktail tablet (Roche, 1 tablet/50 ml buffer)) at a ratio of 4 ml lysis buffer/gram embryos. After 20 min incubation on ice, the lysate was centrifuged at 14000×g for 15 mins. […] The beads were then transferred to a 2 ml-gravity disposable column and washed 3 times with 6 column of Last Wash Buffer (800 mM ammonium acetate pH7.5, 1 ppm BHT). The beads were then transferred to a glass vial and the samples prepared for mass spectrometry.
The chloroform phase was collected and dried under a stream of nitrogen gas. The dried residue was reconstituted in 10% acetonitrile prior to LC-MRM. […]
The purified PPARγ or control purifications were then extracted with 2:1 chlorofonailmethanol, and the solvent phase analyzed by mass spectrometry.

The subject of the next assay is 3T3-L1 cells. The assay is described as follows: Murine 3T3-L1 adipocyte differentiation assay (Oil Red O). In kind it is cell-based. The note with it: with dexamethasone, isobutylmethylxanthine and insulin; Oil Red O staining. As to the method:
The cell line was originally obtained from ATCC and 3T3-L1 cells were maintained in the fibroblasts stage in DMEM (Gibco: 11995-065), 10% FBS (Gibco: 26140-079) and Pen-Strep solution (Gibco: 15140-122). Cells were grown in 75 cm^2 flasks and sub-cultured just prior to confluence. Medium was removed and washed twice with PBS. For cell differentiation 2 day post-confluent monolayers were incubated for 2 days in DMEM containing: 10% fetal bovine serum (FBS), 100 μg/ml IBMX (from a 500× stock in 0.15 M KOH, prepared fresh), 390 ng/ml dexamethasone (from a 1000× stock in EtOH) and 5 μg/ml insulin (from a 1000× stock in 0.1 M HCl). After 2 days media was replaced with DMEM+ 10% FBS and 5 μg insulin only and cells were maintained for another 2 days. Media was then replaced by DMEM+ 10% FBS for 5-6 days until differentiation was complete. After differentiation media was removed and cells were washed twice with PBS and then fixed in 4% PFA. Lipids were stained with Oil O red.

In assay [2] the test system is GFP-expressing leukocytes recruited in response to CuSO4. Put plainly: Zebrafish inflammation assay (CuSO4). In kind it is in vivo. Here is the method:
Assay was performed as described in [47]. Fifteen dechorionated 55 hpf (hours post fertilization) embryos were transferred in each well of 6-well plates in 6 ml of embryo water. Idebenone was added at increasing concentrations (0.25, 0.75, 1.5, 3 and 5 μM). Embryos were incubated in the dark for 1 hr at 28 C, followed by a second 40 min incubation with copper sulfate (CuSO4) at a final concentration of 10 μM at 28 C in the dark. Embryos were then transferred to Eppendorf tubes and fixed in 4% paraformaldehyde in 1×PBS overnight at 4 C in the dark. Numbers of GFP+ cells were counted along the lateral line/neuromast clusters.
Previous studies have shown that PPAR agonists have anti-inflammatory properties, and can be used to treat a variety of inflammatory responses. To test if this is also true for idebenone, we used a zebrafish model of inflammation. Exposure of fish larvae to copper sulfate causes non-invasive damage to neuromast cells, which form external clusters along the lateral midline. This inflammation can be visualized via the recruitment of GFP-expressing leukocytes. As expected, this recruitment of GFP positive cells could be alleviated by addition of the known anti-inflammatory agent ibuprofen (FIG. 11).

Another assay addresses T3, hPPARγ (Homo sapiens, UniProt P37231).
T3 sequence (P37231 188-477 isoform P37231-2): T2 sequence (P37231 188-477 isoform P37231-2)
Put plainly: PPARγ ligand trap (LT) zebrafish GFP reporter screen/assay. The arrangement: pLT PPARα (aa 178-468) and pLT PPAR γ (aa 188-477) lines; expressed in transfected cells; host or cells: transgenic zebrafish embryos (heat-induced ligand-trap line). The note with it: for GFP reporter activation in LT-PPARγ embryos: transgenic embryos, 48 hpf images. In kind it is in vivo. As to the method: Digested DNA was adjusted with 0.1% phenol red. 4.6 nl of DNA solution was injected into the blastomeres of early one-cell stage embryos.
F0 fish were crossed with WT fish to identify germ-line transformed animals, as determined by agonist treatments and GFP expression. F1 progeny showing strong and consistent GFP responses were selected for F2 homozygote production. To avoid reporter GFP silencing of stable transgenic LT lines, homozygous fish showing strong and consistent GFP responses were selected for continued propagation of next generations.
PPARγ ligand trap zebrafish screens were performed under optimized conditions in 96-well format using the ImageXpress Velos Laser Scanning Cytometer. 1 or 2 dpf embryos were heat induced (28→37° C.) for 30 minutes, de-chorionated and then arrayed in 96-well plates (5 per well). Embryo water (0.075 g/L NaHCO3, 0.018 g/L Sea salt, 0.0084 g/L CaSO42H2O) was removed and 200 μl of fresh embryo water/well including dissolved small molecules or solvent was added.
Also included was the CoQ10 analog idebenone.

Turning to `COC1=C(OC)C(=O)C(CCCCCCCCCCO)=C(C)C1=O` [Idebenone, 2-(10-hydroxydecyl)-5,6-dimethoxy-3-methyl-2,5-cyclohexadiene-1,4-dione], the “Binding to PPARγ LBD (co-purification, MS)” value on PPARγ LBD was “strong binding”. Also, in assay [1], the “Co-purification with PPARγ from LT fish (LC-MRM)” value is “yielded idebenone in the affinity purification eluate; also recorded: co-purify with affinity-tagged PPARγ”. In addition, the “Lipid accumulation / adipocyte differentiation” value with 3T3-L1 cells is “does not stimulate adipocyte differentiation and activity; also recorded: no accumulation of lipid”. Moreover, the “Recruitment of GFP positive leukocytes (anti-inflammatory activity)” value in assay [2] (10 μM CuSO4, 55 hpf embryos) was “robust anti-inflammatory agent; also recorded: anti-inflammatory activity”. Besides, in assay [2] (idebenone 0.25-5 μM tested), the “Concentration at which anti-inflammatory activity is detectable” value is listed as “sub micromolar”. The “Hit activating the PPARγ ligand trap reporter fish line” value at hPPARγ (Enzo FDA approved drug library, screened at 1, 3 and 10 μM) is recorded as “hits”. Further, the “Concentration yielding maximal activation in fish reporter system” value at hPPARγ (in vivo) was at least 4 µM. The “GFP reporter activation in LT-PPARγ embryos” value was “more limited GFP expression in cells of the blood, epidermis and CNS” at hPPARγ; “weaker and less widespread than responses to rosiglitazone or pioglitazone; also recorded: dual agonists for PPARα and PPARγ” at hPPARγ (listed as idebenone). Also, the EC50 at hPPARγ (zebrafish ligand trap, read-out: EC50 in fish) was found to be 2 µM.
